{"source": "patent US8367605B2", "about": "“Copolymer-1 improvements in compositions of copolymers” (Yeda Research and Development Co. Ltd., priority 1994, dated 2013)", "origin": "cited, not measured here", "key": {"[1]": {"tested_on": "experimental autoimmune encephalomyelitis (EAE)", "settings": "Eur. J. Immunol. [1971]1:242; U.S. Pat. No. 3,849,550"}, "[2]": {"tested_on": "patients with the exacerbating-remitting form of multiple sclerosis", "settings": "daily injections; N. Engl. J. Med. [1987]317:408"}}}
{"substance": "copolymer-1", "values": [{"measurement": "effect on EAE", "setting": "[1]", "result": "suppress EAE"}, {"measurement": "disability status versus control patients", "setting": "[2]", "result": "smaller increases in their disability status"}, {"measurement": "exacerbations versus control patients", "setting": "[2]", "result": "fewer exacerbations"}]}
